Reference: patent US9927437B2, “Treating neurodegenerative disease” (THE BRIGHAM AND WOMEN'S HOSPITAL, INC., priority 2013, dated 2018)

How the values were obtained:
astrocytes = assay: mRNA expression in astrocytes isolated from EAE NOD mice (nCounter, qPCR); type: in vivo, mouse; details: NOD EAE; i.c.v. lentivirus at day 35, qPCR
Experimental: Mononuclear cells were isolated from the CNS as previously described^50 with minor modifications. Naïve and EAE mice were euthanatized, and then subjected to perfusion through the left ventricle with ice-cold sterile PBS. Brains and spinal cord were then removed, minced and enzymatically dissociated with 0.05% (w/v) collagenase type III (Worthington Biochemical), 0.5% Dispase II (Roche Applied Science), 40 μg/ml DNAse I, 20 mM HEPES in HBSS) for 30 min at 37 C to make a suspension of single cells. Enzymes were inactivated with 20 ml of Ca^2+/Mg^2+-free HBSS containing 2 mM EDTA and 20 mM HEPES. The digested tissue was triturated and passed through a […] cell strainer. Cells were centrifuged and resuspended in 30% isotonic Percoll (GE Healthcare) and 40 μg/ml DNAse I, underlined by 70% isotonic Percoll, and centrifuged at 1000×g at 4° C. for 25 min. Cells were collected from the 70%-30% interphase, and sorted by FACS Aria.
These purification procedures are based on previously described dissociation and purification protocols^50,51. Isolated CNS cells, were incubated with anti-Mouse CD16/CD32 for 15 min on ice to block the Fc receptors, and stained with fluorochrome-conjugated antibody for CD11b (M1/70), CD45(90), CD3 (145-2C11), CD4 (GK1.5), and Ly6C (HK1.4), and Biotion-conjugated GSL I—isolectin B4 (Vector labs), CD105 (N418), CD140a (APA5), CD11c (N418), F4/80 (BM8), O4 (O4, Miltenyi Biotec), and CD19 (eBio1D3), and un-conjugated antibodies recognizing mouse MOG (8-18C5, Millipore), O1 (O1), and Galactocerebroside (mGlaC, Millipore). All antibodies were from Ebioscience, unless otherwise mentioned (clone number, when relevant, in parentheses). Cells were washed and incubated PE-conjugated Streptavidin and R-Phycoerythrin AffiniPure F(ab′)2 fragment of Goat Anti-Mouse IgG+IgM (H+L) (Jackson ImmunoResearch laboratories) for 20 min at 4 C in the dark. Cells were washed, incubated with 7-AAD or Fixable Viability Dye eFluor® 450 (if cells were to be used for intracellular staining), for exclusion of dead cells (FIG. S3A), and sorted as following. Microglia were sorted as CD11b^+ cells with low CD45 expression and low Ly6C (CD11b+/CD45^low/Ly6C^low), while the inflammatory monocytes were considered as CD11b^+/Ly6C^high 52. T-cells were sorted as CD3^+CD4^+ cells. Astrocytes were isolated following the depletion of lymphocytes, microglia, monocytes (FIG. S3B), and oligodendrocytes, and lymphocytes (T-cells, B-cells, and NK cells) (FIG. S3C). […] We confirmed that we had isolated a relatively pure populations of astrocytes by qPCR for the astrocyte markers^44,51 gfap, aldh1l1 and aqp4, and found them to be exclusively expressed in the astrocyte fraction (in a similar expression pattern to that of GFP^+ astrocytes sorted from Tg(GFP-hGFAP) FVB transgenic mice^49) (FIG. S3E). We used an additional cohort of markers to explore for presence of immune cells [microglia/monocytes cells—itgam (CD11b), and emr1 (F4/80), dendritic cells—itgax (CD11c), NK cells—Klrb1c (Nk1.1), T-cells—cd3, and B-cells—cd19], oligodendrocytes (mog, mbp), and neurons (syt1, snap25) (FIG. S3F, G).
100-200 ng of total RNA was hybridized with reporter and capture probes for nCounter Gene Expression code sets (Mouse Inflammation Kit, or a custom made astrocyte-oriented probe set (Table S1)), according to manufacturer's instructions (NanoString Technologies). Data were normalized to spiked positive controls and housekeeping genes (nSolver Analysis system). Transcript counts less than the mean of the negative control transcripts plus 2 standard deviations for each sample were considered background.
Nanostring generated gene expression data were analyzed by use of the Expander 6.06 platform^53. Genes were clustered using the unbiased CLICK algorithm, and each cluster was further analyzed for enrichments in transcription factors binding sites (promoter analysis).

C8-D30 astrocytes = assay: In vitro knock-down with shRNA in C8-D30 astrocytes, LPS/IFNγ activation; type: cell-based, mouse; details: lentivirus-delivered shRNA
EAE NOD mice = assay: EAE in NOD mice, progressive phase (clinical score, histopathology, body weight); type: in vivo; details: NOD EAE; i.c.v. 1×10^7 IU lentivirus at day 35
B4GALT5/6 = assay: Quantification of LacCer levels in the CNS (LC-MS/MS); type: in vivo, mouse; details: NOD EAE; i.c.v. 1×10^7 IU lentivirus at day 35, 10 days after injection
Experimental: Chemical standards of LacCer (d18:1/16:0) and LacCer (d18:1/18:0) were obtained from Avanti Polar Lipids. Quantification of LacCer (d18:1/16:0) and LacCer (d18:1/18:0) was achieved by LC-MS/MS analysis performed on an Agilent (Agilent Technologies, Santa Clara, Calif.) 6460 triple-quadrupole LC/MS/MS system. The fragments from the [M+H]^+ ions for LacCer and internal standard were subjected to collision induced dissociation and the two major types of fragment ions were monitored via electrospray ionization in the positive ion mode in multiple reaction monitoring (MRM) mode for each ion. These two MRM transitions corresponded to the loss of the neutral lactosyl moiety, and to the formation of the lactose ion. Specifically, the MRM transitions used for quantification for LacCer (d18:1/16:0) and LacCer(d18:1/18:0) were 862.5>[…] and 890.6>548.5, respectively. Secondary confirmatory MRM transitions for LacCer(d18:1/16:0) and LacCer(d18:1/18:0) of 862.5>264.3 and 890.6>264.3 were also monitored. Mass spectrometer parameter settings were gas temp (325° C.), gas flow (12 L/min), nebulizer (25 psi), sheath gas temp (400° C.), sheath gas flow (12 L/min), capillary voltage (4000v), and nozzle voltage (500v). Liquid chromatography conditions with an a Phenomenex Gemini C18 column 4.6×50 mm 5 μm particle size was used for separation. Chromatography method the following flow rate=0.4 mLs/min; solvent A=5 mM ammonium formate in 5% MeOH and 0.1% formic acid v/v/v; solvent B=80% 2-propanol, 15% methanol, 5% water and 0.1% formic acid (v/v/v/v). […] Standard curve mixture was analyzed at various concentrations between 0.10 nM to 3.3 μM in LacCer (d18:1/16:0) and an internal standard concentration of 1 μM. The lower limit of quantification was estimated at 1 nM and a R^2 of 0.9969 was obtained using linear regression analysis. […]
The brain tissue was weighed and homogenized using a Dounce homogenizer (VWR), in the extraction solvent using a Bligh and Dyer type liquid-liquid extraction. […] The dried sample was reconstituted in 100 μl of 2:1 chloroform-methanol, and analyzed using the HPLC-MS.

shB4galt5: lentivirus-delivered shRNA against b4galt5 (TRCN0000018782; SEQ ID NO:2) (guide GCAGCCTGAATGACTCAGATTCTCGAGAATCTGAGTCATTCAGGCTGC)
b4galt6 and b4galt5 expression in astrocytes (astrocytes): astrocyte-specific knock-down
up-regulation of h2-Aa, ccl5 and cxcl10 expression (C8-D30 astrocytes): did not affect the expression
EAE disease progression (EAE NOD mice): but not of b4galt5, suppressed disease progression
CNS LacCer levels (B4GALT5/6): but not of b4galt5, led to a significant decrease of CNS LacCer levels
